The results in this text go back to PMC2922490 (Bioorganic & medicinal chemistry letters, 2010).

The format of data set [1] is in vitro ADME. As to conditions: human protein binding.
Data set [2] is classed as in vitro ADME. As to conditions: rat microsomes, incubation period of 60 min.
The format of data set [3] is in vitro ADME. As to conditions: rat protein binding.
The target of data set [4] is hmGlu4 (Homo sapiens, UniProt Q14833).
The format of data set [5] is in vitro ADME. As to conditions: human microsomes, incubation period of 60 min.

Structures are written as SMILES.

Sequence of hmGlu4 (Q14833 33-912): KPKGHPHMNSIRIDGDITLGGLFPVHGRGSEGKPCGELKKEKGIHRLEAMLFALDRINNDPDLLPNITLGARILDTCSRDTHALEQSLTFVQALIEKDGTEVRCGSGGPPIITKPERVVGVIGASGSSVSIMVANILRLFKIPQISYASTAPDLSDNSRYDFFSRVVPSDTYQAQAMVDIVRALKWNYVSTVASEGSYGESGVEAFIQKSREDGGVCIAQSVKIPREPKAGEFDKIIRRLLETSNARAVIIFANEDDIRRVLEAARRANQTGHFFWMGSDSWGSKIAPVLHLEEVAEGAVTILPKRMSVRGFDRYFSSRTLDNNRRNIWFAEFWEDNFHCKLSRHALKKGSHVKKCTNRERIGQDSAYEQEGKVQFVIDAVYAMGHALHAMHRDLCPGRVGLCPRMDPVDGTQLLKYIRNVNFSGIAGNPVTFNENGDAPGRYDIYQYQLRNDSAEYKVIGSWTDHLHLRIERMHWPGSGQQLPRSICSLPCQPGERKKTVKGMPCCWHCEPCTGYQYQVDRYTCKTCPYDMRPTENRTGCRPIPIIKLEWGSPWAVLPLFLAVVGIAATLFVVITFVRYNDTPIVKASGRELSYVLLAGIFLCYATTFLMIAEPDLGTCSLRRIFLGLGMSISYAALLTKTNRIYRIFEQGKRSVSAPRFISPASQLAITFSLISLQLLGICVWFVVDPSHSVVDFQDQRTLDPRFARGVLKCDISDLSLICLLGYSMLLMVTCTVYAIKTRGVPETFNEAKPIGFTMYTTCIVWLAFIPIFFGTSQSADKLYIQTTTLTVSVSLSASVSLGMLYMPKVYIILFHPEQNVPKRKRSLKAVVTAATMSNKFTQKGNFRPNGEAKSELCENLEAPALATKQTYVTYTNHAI

Turning to `Cc1cc(C)c(NS(=O)(=O)c2ccc(NC(=O)c3ccco3)cc2)c(C)c1` [Compound 4], the “PPB (h) (% free)” value in data set [1] is reported as 2.2 % free. Also, the “RLM (% remaining)” value in data set [2] is given as 93.3 % remaining. For the same molecule, the “PPB (r) (% free)” value in data set [3] was determined as 8.2 % free.

Regarding `Cc1cc(C)c(NS(=O)(=O)c2ccc(NC(=O)c3ccccn3)cc2)c(C)c1` [Compound 5], in data set [4] (2-furyl amide of 4 changed to 2-pyridyl amide), the “increase in potency relative to 4” value stood at 30 fold. Besides, in data set [4] (mGlu4/Gqi5 CHO cells, absence of an EC20 concentration of glutamate), the “receptor activation in the absence of glutamate” value is recorded as “does not elicit receptor activation”. Further, the “PPB (h) (% free)” value in data set [1] was 0.1 % free. In data set [2], the “RLM (% remaining)” value was found to be 25.8 % remaining. Also, the “PPB (r) (% free)” value in data set [3] turned out to be 0.3 % free.

In the case of `O=C(Nc1ccc(S(=O)(=O)Nc2ccccc2Cl)cc1)c1ccccn1` [Compound 8b], in data set [1], the “PPB (h) (% free)” value is 0.1 % free. For the same molecule, the “RLM (% remaining)” value in data set [2] stood at 0.02 % remaining. The “PPB (r) (% free)” value in data set [3] was 0.3 % free. Also, in data set [5], the “HLM (% remaining)” value is listed as 0.02 % remaining.

As to `O=C(Nc1ccc(S(=O)(=O)Nc2ccccc2Cl)cc1)c1nccs1` [Compound 9d], the “PPB (h) (% free)” value in data set [1] is given as 0.1 % free. Further, the “RLM (% remaining)” value in data set [2] was determined as 1.2 % remaining. Further, the “PPB (r) (% free)” value in data set [3] amounted to 0.1 % free. Besides, in data set [5], the “HLM (% remaining)” value amounted to 0.84 % remaining.

As for `CN(c1ccccc1Cl)S(=O)(=O)c1ccc(NC(=O)c2ccncn2)cc1` [Compound 9f], the “PPB (h) (% free)” value in data set [1] was 1.7 % free. In addition, in data set [2], the “RLM (% remaining)” value worked out at 3.3 % remaining. Moreover, the “PPB (r) (% free)” value in data set [3] came out at 2.7 % free. Besides, in data set [5], the “HLM (% remaining)” value is 2.5 % remaining.

As to `CN(c1ccccc1Cl)S(=O)(=O)c1ccc(NC(=O)c2nccs2)cc1` [Compound 9g], in data set [1], the “PPB (h) (% free)” value came to 0.5 % free. The “RLM (% remaining)” value in data set [2] is 0.08 % remaining. Also, in data set [3], the “PPB (r) (% free)” value came to 37 % free. Besides, the “HLM (% remaining)” value in data set [5] is listed as 0.1 % remaining.

Turning to `COc1ccccc1NS(=O)(=O)c1ccc(NC(=O)c2ccccn2)cc1OC` [Compound 10], the “PPB (h) (% free)” value in data set [1] is 0.3 % free. In addition, in data set [2], the “RLM (% remaining)” value worked out at 0.05 % remaining. The “PPB (r) (% free)” value in data set [3] amounted to 12.7 % free. Besides, in data set [5], the “HLM (% remaining)” value stood at 1.3 % remaining.

Regarding `O=C(Nc1ccc(S(=O)(=O)Nc2ccccc2Cl)c(Cl)c1)c1ccccn1` [Compound 11], the “RLM (% remaining)” value in data set [2] amounted to 0.02 % remaining. Moreover, the “HLM (% remaining)” value in data set [5] worked out at 0.63 % remaining.

`O=C(Nc1ccc(Cl)c(S(=O)(=O)Nc2ccccc2Cl)c1)c1ccccn1` [Compound 13]: in data set [4] (relative to the parent compound (13 vs 11; N-Me vs NH sulfonamides)), the loss of potency is listed as 36 fold. In data set [2], the “RLM (% remaining)” value worked out at 0.05 % remaining. Besides, the “HLM (% remaining)” value in data set [5] is listed as 11.9 % remaining.
